biological target: Protein cereblon/B-cell lymphoma 6 protein (Homo sapiens) (UniProt Q96SW2+P41182); assay: PROTAC activity at CRBN/N-terminal-HibiT tagged BCL6 in human HT-1080 cells transfected with pLV-UBC-N-HiBiT- BCL6-PGK-puro assessed as degradation of protein by measuring ratio of trough concentration of protein in cell compared to the concentration of protein before the cell contact with compound (Ymin) incubated for 5 hrs by luminescence based NANO-Glo HIBiT lytic detection assay

| SMILES | Activity [%] |
| --- | --- |
| Cn1nc(C2CCC(=O)NC2=O)c2cccc(N3CCC(CN4CCN(c5ncc(Br)c(Nc6ccc7c(c6)c6c(c(=O)n7C)OCC(F)(F)[C@H](C7CC7)N6)n5)CC4)CC3)c21 (some centres not stated) | < 30 |
| Cn1nc(C2CCC(=O)NC2=O)c2cccc(C3CCN(CC4CCN(c5ncc(F)c(Nc6ccc7c(c6)c6c(c(=O)n7C)OCC(F)(F)[C@H](C7CC7)N6)n5)CC4)CC3)c21 (some centres not stated) | < 30 |
| Cn1nc(C2CCC(=O)NC2=O)c2cccc(N3CCC(CN4CCN(c5ncc(Cl)c(Nc6ccc7c(c6)c6c(c(=O)n7C)OCC(F)(F)[C@H](C7CC7)N6)n5)CC4)CC3)c21 (some centres not stated) | < 30 |
| Cn1nc(C2CCC(=O)NC2=O)c2cccc(N3CCC(CN4CCN(c5ncc(F)c(Nc6ccc7c(c6)c6c(c(=O)n7C)OCC(F)(F)[C@H](C7CC7)N6)n5)CC4)CC3)c21 (some centres not stated) | < 30 |
| C[C@@H](C1CCN(c2cccc3c(C4CCC(=O)NC4=O)nn(C)c23)CC1)N1CCN(c2ncc(Cl)c(Nc3ccc4c(c3)c3c(c(=O)n4C)OCC(F)(F)[C@H](C4CC4)N3)n2)CC1 (some centres not stated) | < 30 |
| Cn1nc(C2CCC(=O)NC2=O)c2cccc(C3CCN(CC4CCN(c5ncc(Cl)c(Nc6ccc7c(c6)c6c(c(=O)n7C)OCC(F)(F)[C@H](C7CC7)N6)n5)CC4)CC3)c21 (some centres not stated) | < 30 |
| Cn1nc(C2CCC(=O)NC2=O)c2ccc(N3CCC(CN4CCN(c5ncc(F)c(Nc6ccc7c(c6)c6c(c(=O)n7C)OCC(F)(F)[C@H](C7CC7)N6)n5)CC4)CC3)cc21 (some centres not stated) | 30 |

More lines, now with the values ahead:

| Activity [%] | SMILES |
| --- | --- |
| < 30 | Cn1c(=O)c2c(c3cc(Nc4nc(N5CCN(CC6CCN(c7cccc8c7C(=O)N(C7CCC(=O)NC7=O)C8=O)CC6)CC5)ncc4Cl)ccc31)N[C@@H](C1CC1)C(F)(F)CO2 (some centres not stated) |
| < 30 | Cn1nc(C2CCC(=O)NC2=O)c2ccc(N3CCC(CN4CCN(c5cc(Nc6ccc7c(c6)c6c(c(=O)n7C)OCC(F)(F)[C@H](C7CC7)N6)c(Cl)cn5)CC4)CC3)cc21 (some centres not stated) |
| < 30 | Cn1nc(C2CCC(=O)NC2=O)c2cccc(N3CCN(CC4CCN(c5ncc(Cl)c(Nc6ccc7c(c6)c6c(c(=O)n7C)OCC(F)(F)[C@H](C7CC7)N6)n5)CC4)CC3)c21 (some centres not stated) |
| < 30 | Cn1nc(C2CCC(=O)NC2=O)c2cccc(N3CCC(OC4CCN(c5ncc(Cl)c(Nc6ccc7c(c6)c6c(c(=O)n7C)OCC(F)(F)[C@H](C7CC7)N6)n5)CC4)CC3)c21 (some centres not stated) |
| < 30 | Cn1nc(C2CCC(=O)NC2=O)c2cccc(N3CCC(CN4CCN(c5cc(Nc6ccc7c(c6)c6c(c(=O)n7C)OCC(F)(F)[C@H](C7CC7)N6)c(Cl)cn5)CC4)CC3)c21 (some centres not stated) |

— ChEMBL document CHEMBL5614457, “New Directions in Antibacterial, Anticancer, and Gene Editing Therapies” (ACS Med Chem Lett, 2024)
